Measurements: paper PMC9389588, “1,6-epi-Cyclophellitol Cyclosulfamidate Is a Bona Fide Lysosomal α-Glucosidase Stabilizer for the Treatment of Pompe Disease” (Journal of the American Chemical Society, 2022)

How the values were obtained:
Assay type in all cases: biochemical
[1] = target: T1, β-glucosidase GBA1 (Cerezyme) (Homo sapiens, UniProt P04062, R534H); assay: in vitro apparent IC50, GBA1 (Cerezyme), 4-MU-β-D-glucopyranoside; settings: pH 5.2, mean ± SD, read-out: in vitro GBA IC50
T1 construct: purchased
T1 sequence (P04062 40-536 R534H): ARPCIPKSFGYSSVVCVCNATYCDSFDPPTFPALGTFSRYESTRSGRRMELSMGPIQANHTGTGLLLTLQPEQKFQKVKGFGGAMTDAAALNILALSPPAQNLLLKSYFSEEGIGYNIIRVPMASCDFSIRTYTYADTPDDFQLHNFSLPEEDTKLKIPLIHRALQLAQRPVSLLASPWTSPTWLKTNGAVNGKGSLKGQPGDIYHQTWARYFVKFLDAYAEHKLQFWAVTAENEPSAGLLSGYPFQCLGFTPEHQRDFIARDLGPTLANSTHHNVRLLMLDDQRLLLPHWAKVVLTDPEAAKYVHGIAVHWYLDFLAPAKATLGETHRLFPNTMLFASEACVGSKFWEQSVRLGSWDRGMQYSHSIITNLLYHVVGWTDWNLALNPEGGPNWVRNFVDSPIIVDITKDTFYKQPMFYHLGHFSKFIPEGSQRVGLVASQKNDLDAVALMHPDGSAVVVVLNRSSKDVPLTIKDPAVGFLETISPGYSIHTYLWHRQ

sucrase-isomaltase (SI) = target: T2, sucrase-isomaltase (SI) (Mus musculus, UniProt B5THE3); assay: competitive ABPP in mouse intestine homogenates, SI; settings: mouse duodenum extracts; 0-100 μM; 30 min 37 °C
T2 construct: cABPP in mouse intestine homogenates; from tissue; host or cells: duodenum of wild type mice
T2 sequence (B5THE3 1-1818): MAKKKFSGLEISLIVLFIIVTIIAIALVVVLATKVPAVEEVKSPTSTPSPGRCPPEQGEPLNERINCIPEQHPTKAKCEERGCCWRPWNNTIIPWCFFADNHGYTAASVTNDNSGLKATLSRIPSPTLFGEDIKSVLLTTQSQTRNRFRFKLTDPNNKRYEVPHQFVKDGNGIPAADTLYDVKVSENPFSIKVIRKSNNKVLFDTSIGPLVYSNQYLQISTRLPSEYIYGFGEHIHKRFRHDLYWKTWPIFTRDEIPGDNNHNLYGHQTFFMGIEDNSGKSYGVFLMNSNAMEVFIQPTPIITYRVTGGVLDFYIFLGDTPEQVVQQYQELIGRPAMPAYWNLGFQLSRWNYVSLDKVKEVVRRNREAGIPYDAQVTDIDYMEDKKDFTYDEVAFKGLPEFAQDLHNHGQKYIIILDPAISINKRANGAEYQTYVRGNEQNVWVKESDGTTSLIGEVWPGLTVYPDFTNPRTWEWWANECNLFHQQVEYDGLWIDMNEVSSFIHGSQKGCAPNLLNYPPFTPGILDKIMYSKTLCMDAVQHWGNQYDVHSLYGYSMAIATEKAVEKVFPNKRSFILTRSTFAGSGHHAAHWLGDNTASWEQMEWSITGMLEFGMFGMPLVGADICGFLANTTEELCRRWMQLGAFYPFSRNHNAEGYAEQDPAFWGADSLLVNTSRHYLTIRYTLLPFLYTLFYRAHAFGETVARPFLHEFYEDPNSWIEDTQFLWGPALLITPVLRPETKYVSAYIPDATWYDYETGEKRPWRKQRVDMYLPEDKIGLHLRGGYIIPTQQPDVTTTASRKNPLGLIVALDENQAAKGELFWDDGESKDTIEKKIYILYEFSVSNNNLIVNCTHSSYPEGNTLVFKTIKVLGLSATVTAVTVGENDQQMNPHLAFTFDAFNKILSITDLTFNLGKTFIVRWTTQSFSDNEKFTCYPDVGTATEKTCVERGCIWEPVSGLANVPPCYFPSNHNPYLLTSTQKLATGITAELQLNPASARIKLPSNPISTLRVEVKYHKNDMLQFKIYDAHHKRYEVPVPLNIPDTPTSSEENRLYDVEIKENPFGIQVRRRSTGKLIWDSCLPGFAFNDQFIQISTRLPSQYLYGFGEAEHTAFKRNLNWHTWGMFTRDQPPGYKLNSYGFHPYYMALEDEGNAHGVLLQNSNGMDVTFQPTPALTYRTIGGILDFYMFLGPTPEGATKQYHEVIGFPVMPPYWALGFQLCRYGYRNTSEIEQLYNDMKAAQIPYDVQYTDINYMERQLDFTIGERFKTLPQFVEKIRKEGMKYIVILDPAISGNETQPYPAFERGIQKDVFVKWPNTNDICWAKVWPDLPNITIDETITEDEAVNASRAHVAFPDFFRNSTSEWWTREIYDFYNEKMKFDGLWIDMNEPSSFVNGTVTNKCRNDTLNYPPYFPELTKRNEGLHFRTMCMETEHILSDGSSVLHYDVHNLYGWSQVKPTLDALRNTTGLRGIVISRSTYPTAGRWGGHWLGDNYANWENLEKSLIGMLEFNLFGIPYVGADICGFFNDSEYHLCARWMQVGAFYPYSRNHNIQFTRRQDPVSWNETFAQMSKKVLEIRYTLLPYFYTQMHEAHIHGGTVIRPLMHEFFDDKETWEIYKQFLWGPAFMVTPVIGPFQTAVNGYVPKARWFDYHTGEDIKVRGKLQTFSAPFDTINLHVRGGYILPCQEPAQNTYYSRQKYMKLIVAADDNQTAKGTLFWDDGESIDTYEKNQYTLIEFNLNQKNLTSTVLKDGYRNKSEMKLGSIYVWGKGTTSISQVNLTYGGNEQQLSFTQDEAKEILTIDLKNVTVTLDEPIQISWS
Description: Inhibition of gastrointestinal α-glucosidases with antidiabetic drugs has been related to undesired effects, including flatulence, diarrhea, and abdominal pain. Cyclosulfamidate 4 inhibits SI and MGAM but does so about a 100-fold less potently than it inhibits rhGAA or GANAB, and we conclude that it has a more beneficial therapeutic window in this regard compared to NB-DNJ 2.
Figure 2 Competitive ABPP (cABPP) in mouse intestine homogenates. […]
After preincubation, 25 μL of E+I mixture was added to a 96 wells plate and 100 μL substrate solution in the appropriate buffer was subsequently added. GAA activity was measured using final concentrations of 47 nM enzyme (Myozyme) and 3.0 mM 4-MU-α-D-glucopyranoside, for 30 minutes at 37 ℃. GANAB activity was measured using wt fibroblasts and 2.4 mM 4-MU-α-D-glucopyranoside, for 2 h at 37 ℃. GBA1 activity was measured using final concentrations of 0.7 nM enzyme (Cerezyme) and 3.0 mM 4-methylumbeliferone(4-MU)-β-D-glucopyranoside, for 30 min at 37 ℃. GBA2 residual activity was measured using cellular homogenates of HEK293T over-expressing GBA2 pre-incubated for 30 min with a GBA1 inhibitor (1 µM 37 (ME656), see Figure S1 for chemical structure), and further incubation with 3.0 mM 4-methylumbeliferone(4MU)-β-D-glucopyranoside […]

[2] = target: T3, lactase-phlorizin hydrolase (LPH) (Mus musculus, UniProt F8VPT3); assay: competitive ABPP in mouse intestine homogenates, LPH; settings: mouse duodenum extracts; 0-100 μM; pH 6.0
T3 construct: cABPP in mouse intestine homogenates; from tissue; host or cells: duodenum of wild type mice
T3 sequence (F8VPT3 22-1931): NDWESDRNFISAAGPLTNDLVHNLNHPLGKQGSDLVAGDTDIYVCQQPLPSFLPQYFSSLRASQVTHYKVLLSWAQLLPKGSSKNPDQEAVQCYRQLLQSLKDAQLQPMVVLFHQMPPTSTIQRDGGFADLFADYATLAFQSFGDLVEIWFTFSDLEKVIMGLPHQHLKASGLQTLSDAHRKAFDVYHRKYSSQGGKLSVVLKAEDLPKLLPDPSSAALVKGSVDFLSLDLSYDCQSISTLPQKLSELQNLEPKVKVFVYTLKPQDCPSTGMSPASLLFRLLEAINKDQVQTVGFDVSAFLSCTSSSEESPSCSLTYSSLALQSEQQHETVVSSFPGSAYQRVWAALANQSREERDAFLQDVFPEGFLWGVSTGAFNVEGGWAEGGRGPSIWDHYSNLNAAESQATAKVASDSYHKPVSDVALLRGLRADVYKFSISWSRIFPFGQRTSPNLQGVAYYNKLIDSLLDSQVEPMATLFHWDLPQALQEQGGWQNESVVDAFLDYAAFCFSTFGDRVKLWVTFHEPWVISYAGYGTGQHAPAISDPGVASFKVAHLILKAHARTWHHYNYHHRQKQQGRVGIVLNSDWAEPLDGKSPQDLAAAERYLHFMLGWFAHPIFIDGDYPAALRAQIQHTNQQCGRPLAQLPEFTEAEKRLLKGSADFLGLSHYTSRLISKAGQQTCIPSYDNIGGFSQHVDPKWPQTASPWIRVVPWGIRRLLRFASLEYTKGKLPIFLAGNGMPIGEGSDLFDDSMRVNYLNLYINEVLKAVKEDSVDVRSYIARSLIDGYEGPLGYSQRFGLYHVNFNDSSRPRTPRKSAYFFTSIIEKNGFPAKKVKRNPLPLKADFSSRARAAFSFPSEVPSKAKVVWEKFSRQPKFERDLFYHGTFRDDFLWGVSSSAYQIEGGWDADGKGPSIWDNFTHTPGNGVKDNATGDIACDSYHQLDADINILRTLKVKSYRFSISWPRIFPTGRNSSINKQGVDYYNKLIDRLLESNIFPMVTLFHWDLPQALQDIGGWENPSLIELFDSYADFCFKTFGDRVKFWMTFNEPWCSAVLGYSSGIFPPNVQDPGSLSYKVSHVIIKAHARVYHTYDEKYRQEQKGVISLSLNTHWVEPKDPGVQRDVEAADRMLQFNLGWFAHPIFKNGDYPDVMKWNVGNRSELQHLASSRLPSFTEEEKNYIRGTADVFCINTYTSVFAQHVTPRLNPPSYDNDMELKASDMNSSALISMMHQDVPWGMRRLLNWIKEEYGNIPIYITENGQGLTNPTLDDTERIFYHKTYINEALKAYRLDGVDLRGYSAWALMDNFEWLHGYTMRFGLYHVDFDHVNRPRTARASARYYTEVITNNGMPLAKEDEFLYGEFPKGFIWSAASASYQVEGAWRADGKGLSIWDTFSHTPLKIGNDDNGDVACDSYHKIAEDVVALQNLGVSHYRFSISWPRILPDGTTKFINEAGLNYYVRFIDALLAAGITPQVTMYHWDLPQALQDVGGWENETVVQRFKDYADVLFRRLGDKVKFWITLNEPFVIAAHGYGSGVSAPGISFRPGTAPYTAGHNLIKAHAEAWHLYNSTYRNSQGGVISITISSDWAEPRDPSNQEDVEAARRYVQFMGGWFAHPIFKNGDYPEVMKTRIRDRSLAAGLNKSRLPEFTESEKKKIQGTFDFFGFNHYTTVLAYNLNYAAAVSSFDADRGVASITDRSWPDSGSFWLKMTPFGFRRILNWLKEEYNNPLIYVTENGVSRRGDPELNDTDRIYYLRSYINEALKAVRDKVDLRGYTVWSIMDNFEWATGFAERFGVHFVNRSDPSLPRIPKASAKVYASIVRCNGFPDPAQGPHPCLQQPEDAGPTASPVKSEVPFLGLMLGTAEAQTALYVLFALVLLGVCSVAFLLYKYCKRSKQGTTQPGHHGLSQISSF

SMILES	IC50 [1] [µM]	inhibition of SI by cABPP, in words (sucrase-isomaltase (SI))	inhibition of LPH activities by cABPP, in words [2]
O=S1(=O)N[C@H]2[C@H](CO)[C@@H](O)[C@H](O)[C@@H](O)[C@H]2O1 [compound 6]	> 500		
O=S1(=O)N[C@@H]2[C@H](O)[C@@H](O)[C@H](O)[C@@H](CO)[C@@H]2O1 [compound 4, 1,6-epi-cyclophellitol cyclosulfamidate]	> 500	inhibit	inhibit neither β-glucosidase nor β-galactosidase activities
